# From the supplement of paper PMC10307832
# Columns and labels:
# Assay in all cases: relative viability (nuclei count vs DMSO), 5 days (fraction); higher = more cells survive
# GSK-J4 + AZD7762 = compound: CCOC(=O)CCNc1cc(N2CCc3ccccc3CC2)nc(-c2ccccn2)n1 [GSK-J4] + NC(=O)Nc1cc(-c2cccc(F)c2)sc1C(=O)N[C@H]1CCCNC1 [AZD7762] (partner 0.2 µM)
# How it was run: (§1)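 Lung cancer cell lines, seeded in 1536-well plates, were treated the following day by pin tool with a single drug or with five library-drug doses (not always all listed) in √10 steps on top of a fixed anchor-drug dose. Cells were fixed and nuclei stained in one step after 5 days, and nuclei were counted. Relative viability is the nuclei count for treated wells divided by that for vehicle wells, reported as medians of duplicate plates.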
# GSK-J4 + Tozasertib = compound: CCOC(=O)CCNc1cc(N2CCc3ccccc3CC2)nc(-c2ccccn2)n1 [GSK-J4] + Cc1cc(Nc2cc(N3CCN(C)CC3)nc(Sc3ccc(NC(=O)C4CC4)cc3)n2)n[nH]1 [Tozasertib] (partner 0.1 µM)
# How it was run: as §1
# GSK-J4 + Pemetrexed = compound: CCOC(=O)CCNc1cc(N2CCc3ccccc3CC2)nc(-c2ccccn2)n1 [GSK-J4] + Nc1nc2[nH]cc(CCc3ccc(C(=O)N[C@@H](CCC(=O)O)C(=O)O)cc3)c2c(=O)[nH]1 [Pemetrexed] (partner 0.2 µM)
# How it was run: as §1
# AZ3146 + Phenformin = compound: CN1CCC(CC1)OC2=CC(=C(C=C2)NC3=NC=C4C(=N3)N(C(=O)N4C)C5CCCC5)OC [AZ3146] + N=C(N)NC(=N)NCCc1ccccc1 [Phenformin] (partner 250 µM)
# How it was run: as §1
Cell Line,relative viability (GSK-J4 + AZD7762; first compound 0.5 µM),relative viability (GSK-J4 + AZD7762; first compound 1.581 µM),relative viability (GSK-J4 + AZD7762; first compound 5 µM),relative viability (GSK-J4 + AZD7762; first compound 15.81 µM),relative viability (GSK-J4 + AZD7762; first compound 50 µM),relative viability (GSK-J4 + Tozasertib; first compound 0.5 µM),relative viability (GSK-J4 + Tozasertib; first compound 1.581 µM),relative viability (GSK-J4 + Tozasertib; first compound 5 µM),relative viability (GSK-J4 + Tozasertib; first compound 15.81 µM),relative viability (GSK-J4 + Tozasertib; first compound 50 µM),relative viability (GSK-J4 + Pemetrexed; first compound 0.5 µM),relative viability (GSK-J4 + Pemetrexed; first compound 1.581 µM),relative viability (GSK-J4 + Pemetrexed; first compound 5 µM),relative viability (GSK-J4 + Pemetrexed; first compound 15.81 µM),relative viability (GSK-J4 + Pemetrexed; first compound 50 µM),relative viability (AZ3146 + Phenformin; first compound 0.08 µM),relative viability (AZ3146 + Phenformin; first compound 0.253 µM),relative viability (AZ3146 + Phenformin; first compound 0.8 µM),relative viability (AZ3146 + Phenformin; first compound 2.53 µM),relative viability (AZ3146 + Phenformin; first compound 8 µM)
201T,0.602,0.673,0.581,0.561,0.609,0.801,0.971,0.96,0.901,0.836,0.353,0.301,0.312,0.33,0.364,0.448,0.446,0.438,0.424,0.455
A549,,,,,,,,,,,,,,,,,0.153,0.168,0.131,0.0734
A-427,0.684,0.441,,0.576,0.328,0.233,,0.22,0.18,0.157,0.932,0.654,,0.883,0.463,0.375,0.332,0.243,0.282,0.227
ABC-1,0.784,0.784,0.955,0.666,0.445,0.188,0.166,0.171,0.166,0.188,,,,,,0.266,0.19,0.212,0.226,0.26
BEN,0.694,0.634,0.441,0.567,0.426,0.514,0.41,0.609,0.375,0.492,0.933,0.759,0.501,0.731,0.573,,0.291,0.248,0.268,0.242
CAL-12T,0.705,0.646,0.557,0.649,0.675,0.304,0.324,0.336,0.264,0.357,1.2,1.15,1.4,1.27,0.946,0.674,0.575,0.568,0.6,0.405
COR-L23,,,,,,0.171,0.211,,0.158,0.136,0.185,0.192,,0.212,0.207,0.401,0.44,0.416,0.526,0.336
COR-L 105,,,,,,0.311,0.371,0.36,0.394,0.387,0.826,,1.12,1.09,0.937,0.548,0.451,0.505,0.388,0.294
ChaGo-K-1,0.873,,0.774,0.912,0.766,0.221,0.213,0.236,0.236,0.21,0.259,,0.247,0.259,0.266,0.581,0.452,0.474,0.426,0.333
EKVX,0.714,,0.732,0.669,0.535,0.379,0.213,0.406,0.346,0.334,0.351,,0.426,0.418,0.315,0.248,0.196,0.234,0.25,0.231
EMC-BAC-2,1.12,0.831,,1.07,0.893,0.251,0.248,0.215,0.263,0.285,0.414,0.362,,0.441,0.477,0.413,0.465,0.53,0.533,0.478
EPLC-272H,0.206,0.23,0.162,0.138,0.147,0.385,0.174,0.443,0.146,0.172,0.36,0.294,0.319,0.295,0.3,,0.247,0.288,0.345,0.317
H3255,0.827,0.791,0.727,0.791,0.656,0.519,0.622,0.539,0.531,0.508,0.649,0.551,0.491,0.503,0.502,0.352,0.419,0.313,0.377,0.338
HARA,0.349,0.36,,0.218,0.161,0.124,,,0.103,0.117,0.219,0.214,,0.263,0.243,0.384,0.415,0.436,0.41,0.404
HCC-15,1.19,1.09,1.12,0.982,1.22,0.393,,0.344,0.319,0.2,0.225,0.225,0.217,0.209,0.245,0.51,0.463,0.429,0.427,0.391
HCC-44,0.95,0.939,0.962,1.11,1.05,0.809,0.803,,0.646,0.688,0.601,0.503,0.638,0.668,0.625,0.118,0.124,0.0902,0.364,0.273
HCC-78,0.686,0.702,0.874,0.485,0.583,0.426,0.401,0.494,0.379,0.348,0.916,0.841,0.929,0.957,0.929,0.421,0.557,0.566,0.81,0.551
HCC-366,0.325,0.258,,0.226,0.312,0.138,0.0869,,0.083,0.0821,0.148,0.145,,0.229,0.169,0.58,0.544,0.607,0.601,0.587
HCC-827,0.203,0.565,0.252,0.197,0.21,0.408,0.434,0.44,0.4,0.362,0.248,0.26,0.258,0.229,0.285,0.443,0.372,0.401,0.416,0.348
